Laboratory results published in patent US20200317660A1, “Quinazolinone Compound and Application Thereof” (LUOXIN PHARMACEUTICAL (SHANGHAI) CO., LTD., priority 2017, published 2020).
pIC50: −log10 of the molar value.

Key:
[1] = In vivo DMPK study in mice after a single administration; design: species or system female Balb/c mice; settings: female, Balb/c, mouse, plasma, intravenous 1 mg/kg
Protocol: Experimental objective: female Balb/c mice were used as the test animals, and the blood concentration of the compound was determined and the pharmacokinetic behavior was evaluated after a single administration.
Experimental operation: 12 healthy adult female Balb/c mice were selected, 6 for intravenous injection group and 6 for oral administration group. The compound to be tested was mixed with an appropriate amount of intravenous injection group vehicle (10% HP-betaCD: 10% solutol=1:1, pH=8), vortex-mixed and sonicated to prepare a 1.0 mg/mL clear solution, followed by filtration for subsequent use; the vehicle in the oral group was 0.5% MC/0.2% Tw80. After the test compound and the vehicle were mixed, it was vortex-mixed and sonicated to prepare a 1.0 mg/mL homogeneous suspension for subsequent use. After an intravenous administration at a dose of 1 mg/kg or an oral administration at the dose of 2 mg/kg and 10 mg/kg, whole blood of the mice was collected for a certain period of time to prepare plasma. The drug concentration was analyzed by LC-MS/MS method, and Phoenix WinNonlin software was used (Pharsight, USA) to calculate the pharmacokinetic parameters.
Cmax: the highest concentration of the drug in the body; F %: oral bioavailability; Oral DNAUC: area under the dose normalization curve; Vd: apparent volume of distribution; Cl: clearance rate; T1/2: half-life.

PI3Kα = target: T1, PI3Kα (Homo sapiens, UniProt P42336); assay: In vitro test of enzyme activity (ADP-Glo lipokinase), PI3K alpha; assay type: biochemical; settings: 40 μM ATP, 50 μM PIP2:3PS, 120 min
T1 construct: purchased Millipore 14-602-K
T1 sequence (P42336 whole entry): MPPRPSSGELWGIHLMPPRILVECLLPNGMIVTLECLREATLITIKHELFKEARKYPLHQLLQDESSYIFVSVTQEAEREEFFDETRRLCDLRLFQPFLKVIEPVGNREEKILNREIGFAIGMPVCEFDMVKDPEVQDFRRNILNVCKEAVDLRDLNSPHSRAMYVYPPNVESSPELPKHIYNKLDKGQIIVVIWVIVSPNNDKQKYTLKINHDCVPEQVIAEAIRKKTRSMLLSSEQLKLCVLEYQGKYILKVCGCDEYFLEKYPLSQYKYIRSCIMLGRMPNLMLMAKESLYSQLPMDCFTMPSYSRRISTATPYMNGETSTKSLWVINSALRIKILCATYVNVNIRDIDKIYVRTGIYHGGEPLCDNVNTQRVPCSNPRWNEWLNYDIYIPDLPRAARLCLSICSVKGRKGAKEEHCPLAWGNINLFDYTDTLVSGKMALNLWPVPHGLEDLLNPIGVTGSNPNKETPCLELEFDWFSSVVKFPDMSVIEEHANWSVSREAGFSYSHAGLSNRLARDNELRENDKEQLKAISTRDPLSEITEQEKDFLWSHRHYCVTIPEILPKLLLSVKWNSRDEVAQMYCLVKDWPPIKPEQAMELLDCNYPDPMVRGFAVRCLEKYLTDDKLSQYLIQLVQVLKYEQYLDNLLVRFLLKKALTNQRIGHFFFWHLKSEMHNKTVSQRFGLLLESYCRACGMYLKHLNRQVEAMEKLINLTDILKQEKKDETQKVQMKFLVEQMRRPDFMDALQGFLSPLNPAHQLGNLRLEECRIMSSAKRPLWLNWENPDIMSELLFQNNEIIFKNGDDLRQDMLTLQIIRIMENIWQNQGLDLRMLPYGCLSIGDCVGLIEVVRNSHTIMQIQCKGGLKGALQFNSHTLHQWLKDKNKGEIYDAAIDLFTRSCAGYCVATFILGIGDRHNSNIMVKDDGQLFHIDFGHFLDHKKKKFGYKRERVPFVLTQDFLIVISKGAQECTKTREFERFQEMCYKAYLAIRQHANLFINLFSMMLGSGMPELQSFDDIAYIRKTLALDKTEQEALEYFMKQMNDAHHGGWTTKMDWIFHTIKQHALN
T1 sequence (P27986 whole entry partner): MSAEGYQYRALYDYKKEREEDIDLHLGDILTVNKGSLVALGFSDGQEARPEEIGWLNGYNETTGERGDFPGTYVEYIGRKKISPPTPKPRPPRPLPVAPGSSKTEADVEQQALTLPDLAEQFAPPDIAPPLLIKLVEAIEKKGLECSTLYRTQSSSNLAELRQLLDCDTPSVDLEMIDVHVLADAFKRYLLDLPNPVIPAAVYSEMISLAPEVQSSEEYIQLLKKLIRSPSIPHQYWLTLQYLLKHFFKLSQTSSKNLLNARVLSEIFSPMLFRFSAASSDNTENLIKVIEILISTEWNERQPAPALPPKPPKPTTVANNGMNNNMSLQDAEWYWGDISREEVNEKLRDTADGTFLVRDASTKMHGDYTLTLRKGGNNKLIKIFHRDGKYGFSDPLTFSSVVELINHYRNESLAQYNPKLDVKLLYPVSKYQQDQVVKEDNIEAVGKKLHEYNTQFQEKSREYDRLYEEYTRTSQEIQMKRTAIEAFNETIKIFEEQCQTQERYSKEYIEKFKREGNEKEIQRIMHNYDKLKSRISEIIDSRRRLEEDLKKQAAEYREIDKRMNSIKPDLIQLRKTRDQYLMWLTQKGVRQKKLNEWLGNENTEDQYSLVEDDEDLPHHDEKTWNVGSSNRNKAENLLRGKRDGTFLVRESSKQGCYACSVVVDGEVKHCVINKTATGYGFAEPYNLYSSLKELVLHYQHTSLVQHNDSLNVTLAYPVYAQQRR

PI3Kδ = target: T2, PI3Kδ (Homo sapiens, UniProt O00329); assay: In vitro test of enzyme activity (ADP-Glo lipokinase), PI3K delta; assay type: biochemical; settings: 40 μM ATP, 50 μM PIP2:3PS, 120 min
T2 construct: purchased Millipore 14-604-K
T2 sequence (O00329 whole entry): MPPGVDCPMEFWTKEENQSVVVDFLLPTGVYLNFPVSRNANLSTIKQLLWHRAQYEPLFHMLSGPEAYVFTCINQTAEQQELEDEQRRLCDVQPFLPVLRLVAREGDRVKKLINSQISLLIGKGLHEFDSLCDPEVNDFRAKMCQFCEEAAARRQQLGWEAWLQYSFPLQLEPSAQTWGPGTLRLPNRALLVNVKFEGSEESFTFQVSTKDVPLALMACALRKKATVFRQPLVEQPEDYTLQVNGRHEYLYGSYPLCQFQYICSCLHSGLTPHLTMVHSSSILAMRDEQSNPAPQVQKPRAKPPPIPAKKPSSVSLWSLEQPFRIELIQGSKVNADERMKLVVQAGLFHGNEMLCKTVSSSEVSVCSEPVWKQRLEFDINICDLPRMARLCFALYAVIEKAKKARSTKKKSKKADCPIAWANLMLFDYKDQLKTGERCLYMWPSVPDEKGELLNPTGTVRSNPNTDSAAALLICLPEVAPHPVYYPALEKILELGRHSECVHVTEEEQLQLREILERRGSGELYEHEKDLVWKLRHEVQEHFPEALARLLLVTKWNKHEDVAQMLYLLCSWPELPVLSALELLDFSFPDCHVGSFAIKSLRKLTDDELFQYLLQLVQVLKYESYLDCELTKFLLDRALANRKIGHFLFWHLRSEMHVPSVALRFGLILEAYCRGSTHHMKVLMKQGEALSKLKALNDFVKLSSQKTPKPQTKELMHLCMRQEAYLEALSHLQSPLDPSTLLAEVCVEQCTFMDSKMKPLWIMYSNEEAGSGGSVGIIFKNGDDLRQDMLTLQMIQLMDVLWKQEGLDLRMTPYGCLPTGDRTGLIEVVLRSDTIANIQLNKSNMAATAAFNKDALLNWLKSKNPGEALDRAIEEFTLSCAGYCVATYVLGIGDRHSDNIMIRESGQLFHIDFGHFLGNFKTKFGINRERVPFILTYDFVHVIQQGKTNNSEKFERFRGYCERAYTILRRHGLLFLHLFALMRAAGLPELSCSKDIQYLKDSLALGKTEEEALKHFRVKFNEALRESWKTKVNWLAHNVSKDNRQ
T2 sequence (P27986 whole entry partner): as the sequence (P27986 whole entry partner) above

PI3Kβ = target: T3, PI3Kβ (Homo sapiens, UniProt P42338); assay: In vitro test of enzyme activity (ADP-Glo lipokinase), PI3K beta; assay type: biochemical; settings: 40 μM ATP, 50 μM PIP2:3PS, 120 min
T3 construct: purchased Promega V1751
T3 sequence (P42338 whole entry): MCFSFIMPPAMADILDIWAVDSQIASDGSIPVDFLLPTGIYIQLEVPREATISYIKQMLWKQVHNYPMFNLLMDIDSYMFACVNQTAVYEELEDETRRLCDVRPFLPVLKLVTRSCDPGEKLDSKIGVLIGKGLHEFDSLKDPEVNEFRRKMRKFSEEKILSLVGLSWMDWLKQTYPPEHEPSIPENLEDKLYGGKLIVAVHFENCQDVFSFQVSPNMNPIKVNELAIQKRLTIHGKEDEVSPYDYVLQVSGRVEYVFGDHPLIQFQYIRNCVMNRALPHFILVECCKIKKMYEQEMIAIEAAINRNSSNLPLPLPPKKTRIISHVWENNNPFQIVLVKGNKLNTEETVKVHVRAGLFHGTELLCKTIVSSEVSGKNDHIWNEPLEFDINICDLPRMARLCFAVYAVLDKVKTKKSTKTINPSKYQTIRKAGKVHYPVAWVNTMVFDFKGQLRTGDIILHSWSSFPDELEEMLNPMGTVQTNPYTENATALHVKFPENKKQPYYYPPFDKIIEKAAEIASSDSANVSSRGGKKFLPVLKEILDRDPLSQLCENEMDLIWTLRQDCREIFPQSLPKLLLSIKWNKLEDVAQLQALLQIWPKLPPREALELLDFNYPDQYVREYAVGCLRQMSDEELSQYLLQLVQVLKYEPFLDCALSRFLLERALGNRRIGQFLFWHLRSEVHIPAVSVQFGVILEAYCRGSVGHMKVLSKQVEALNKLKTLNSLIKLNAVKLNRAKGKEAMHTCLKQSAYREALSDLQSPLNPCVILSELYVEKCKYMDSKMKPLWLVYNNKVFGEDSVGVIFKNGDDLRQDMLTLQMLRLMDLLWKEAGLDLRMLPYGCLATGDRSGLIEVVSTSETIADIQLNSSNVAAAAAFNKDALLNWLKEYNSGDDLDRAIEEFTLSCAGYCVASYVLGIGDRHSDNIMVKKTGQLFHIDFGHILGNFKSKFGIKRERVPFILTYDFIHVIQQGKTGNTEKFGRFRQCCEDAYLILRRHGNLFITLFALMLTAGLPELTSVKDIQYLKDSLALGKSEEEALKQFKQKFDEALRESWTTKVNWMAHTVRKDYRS
T3 sequence (P27986 whole entry partner): as the sequence (P27986 whole entry partner) above

CNC(=O)CCCn1cnc2ccc(-c3cnc(OC)c(NS(=O)(=O)c4ccc(F)cc4Cl)c3)cc2c1=O [WX198]
clearance ([1]; read-out: Cl (clearance rate)): 4.16 mL/min/kg | half-life ([1]; read-out: Intravenous injection T1/2 (converted)): 53.4 min | Vd ([1]; read-out: Vd (apparent volume of distribution)): 0.257 L/kg | pIC50 (PI3Kα): 8.96 | pIC50 (PI3Kδ): 8.68 | pIC50 (PI3Kβ): 7.48
